Series [1] concerns B16. The series can be described thus: Inhibition of melanin production in mouse B16 cells at 100 uM after 48 hrs by spectrophotometry relative to control. It is filed as functional. The note with it: B16, 48 h.
Series [2] has as its system B16. Kind of series: Inhibition of melanin production in mouse B16 cells at 0.1 uM after 48 hrs by spectrophotometry relative to control. It is filed as functional. The note with it: B16, 48 h.
The nature of series [3]: Cytotoxicity against mouse B16 cells assessed as viability at 0.1 uM after 48 hrs by viacount reagent staining technique relative to control. It is filed as cell-based. The following applies: read-out: Activity.

`OC[C@H]1O[C@@H](Oc2ccc(O)cc2)[C@H](O)[C@@H](O)[C@@H]1O` [ARBUTIN]: in the series with B16 [1], 100 µM produced 33% inhibition. As to `C=C(C)[C@@]12OC3(/C=C/CCCCC)O[C@@H]1[C@@H]1[C@@H]4O[C@]4(CO)[C@@H](O)[C@]4(O)C(=O)C(C)=C[C@H]4[C@@]1(O3)[C@H](C)[C@H]2OC(=O)/C=C/c1ccccc1` [HIRSEIN A], the inhibition (usually how much of the control response was suppressed) at 0.1 µM with B16 [2] came to 37%. In addition, in series [3], the viability at 48 h, 0.1 µM amounted to 99.3%.

As to `C=C(C)[C@@]12OC3(CCCCCCCCC)O[C@@H]1[C@@H]1[C@@H]4O[C@]4(CO)[C@@H](O)[C@]4(O)C(=O)C(C)=C[C@H]4[C@@]1(O3)[C@H](C)[C@H]2OC(=O)/C=C/c1ccc(O)cc1` [HIRSEIN B], the inhibition at 0.1 µM in the series with B16 [2] came out at 26%. The viability at 48 h, 0.1 µM in series [3] was found to be 97.5%.
